Where two headings read alike, the source gives them in different places.
How the values were obtained:
[1] = biological target: T1, NK2-receptor (Cavia porcellus, UniProt Q64077); assay: NK2-receptor-antagonistic effectiveness in vivo, NKA-induced late hypotension, bronchoconstriction and colonic pressure in anaesthetised guinea pigs; conditions: guinea pig; for ED50 iv after 1 min (cumulative), NK2 (bronchoconstriction) / ED50 iv after 1 min (cumulative), NK2 (colonic motility) / ED50 iv after 1 min (cumulative), NK2 (late hypotension) / ED50 AUC1-180 min oral, NK2 (bronchoconstriction) / ED50 AUC1-180 min oral, NK2 (colonic motility) / ED50 AUC1-180 min oral, NK2 (late hypotension): NKA 200 pmol/animal i.v.; for ED50 iv after 1 min (cumulative), NK2 (bronchoconstriction) / ED50 iv after 1 min (cumulative), NK2 (colonic motility) / ED50 iv after 1 min (cumulative), NK2 (late hypotension): intravenous administration; for oral activity on the NK2, in words / ED50 AUC1-180 min oral, NK2 (bronchoconstriction) / ED50 AUC1-180 min oral, NK2 (colonic motility) / ED50 AUC1-180 min oral, NK2 (late hypotension): oral administration
T1 construct: from tissue; host or cells: whole animal (Pirbright-White guinea pigs), in vivo
T1 sequence (Q64077 1-402): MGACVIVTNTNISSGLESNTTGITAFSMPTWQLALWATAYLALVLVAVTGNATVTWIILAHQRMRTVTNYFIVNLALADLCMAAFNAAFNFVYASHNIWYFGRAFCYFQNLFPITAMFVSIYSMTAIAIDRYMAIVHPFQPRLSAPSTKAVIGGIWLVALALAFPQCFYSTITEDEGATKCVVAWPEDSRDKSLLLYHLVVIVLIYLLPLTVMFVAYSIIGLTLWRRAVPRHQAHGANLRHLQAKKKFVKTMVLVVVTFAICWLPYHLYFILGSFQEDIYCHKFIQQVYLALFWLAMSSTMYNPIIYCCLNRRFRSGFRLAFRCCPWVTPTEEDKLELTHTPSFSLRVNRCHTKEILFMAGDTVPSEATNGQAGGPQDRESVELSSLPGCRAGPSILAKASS
Text: 10. Determination of the NK1- and NK2-Receptor-Antagonistic Effectiveness of the Test Substances In Vivo
The NK1- and NK2-antagonistic activities of the test substances were investigated in anaesthetised guinea pigs in each case after intravenous (=i.v.) and oral (=p.o.) administration in vivo. With the present test model it is possible to detect both NK2-antagonistic effects in three different organ systems (respiratory tracts, colon and circulation) and NK1-antagonistic effects (rapid drop in blood pressure) in an animal simultaneously.
Pirbright-White guinea pigs of a body weight of 500-700 g were anaesthetised with ketamine/xylazine (67/13 mg/kg subcutaneously, initial dose, further doses administered as required). The animals were provided with an intravenous catheter in order to administer the substance and an intra-arterial catheter to measure the blood pressure. The animals were artificially ventilated via a tracheal cannula and the respiratory pressure was recorded by means of a pressure transducer. A balloon was introduced into the distal colon of the animals for manometric recording of colon motility by means of a pressure transducer. Blood pressure, heart rate, respiratory pressure and colonic pressure were measured continuously for each animal and plotted on a recorder and by means of a digital data-processing system. […] The second phase of delayed hypotension (=phase of maximum hypotension after 2-5 min.) on the other hand is mediated via NK2-receptors, since they can be blocked by specific NK2-receptor antagonists.
These ED50 values obtained from cumulative dose effect curves are plotted in Table 13.

[2] = biological target: human NK1-receptor (Homo sapiens, UniProt P25103); assay: Functional cellular test, Ca2+ measurements using FLIPR for NK1 activity; type: cell-based; design: expressed in transfected cells; host or cells: CHO fibroblast cells; conditions: for pA2 data for NK1: CHO cells, human NK1, FLIPR Ca2+, agonist substance P 10^-8 M
Chain of human NK1-receptor (P25103 whole entry): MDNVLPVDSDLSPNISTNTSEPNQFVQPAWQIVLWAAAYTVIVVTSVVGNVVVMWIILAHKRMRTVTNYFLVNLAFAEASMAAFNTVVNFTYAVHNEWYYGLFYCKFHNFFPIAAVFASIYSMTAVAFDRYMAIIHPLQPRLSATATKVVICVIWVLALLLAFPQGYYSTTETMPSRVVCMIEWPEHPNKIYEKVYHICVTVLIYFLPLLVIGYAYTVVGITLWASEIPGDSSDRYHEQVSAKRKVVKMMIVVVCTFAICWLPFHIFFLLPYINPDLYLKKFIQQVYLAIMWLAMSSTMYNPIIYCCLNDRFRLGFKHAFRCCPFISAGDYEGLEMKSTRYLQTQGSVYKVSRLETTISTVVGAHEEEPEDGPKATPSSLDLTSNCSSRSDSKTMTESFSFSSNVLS
Text: The NK receptor is coupled to Gq.
All steps were done under sterile conditions.

[3] = biological target: T2, NK3-receptor (Meriones unguiculatus, UniProt Q2YHR0); assay: NK3-receptor-antagonistic effectiveness in vivo, senktide-induced hypothermia in gerbils; conditions: gerbil; for Inhibition of temperature increase at t = 60 minutes after oral (po) administration: senktide 0.03 mg/kg sc; for Inhibition of temperature increase at a dose of 10 mg/kg after parenteral (ip) administration: 10 mg/kg ip
T2 construct: from tissue; host or cells: whole animal (male gerbils), in vivo
T2 sequence (Q2YHR0 1-454): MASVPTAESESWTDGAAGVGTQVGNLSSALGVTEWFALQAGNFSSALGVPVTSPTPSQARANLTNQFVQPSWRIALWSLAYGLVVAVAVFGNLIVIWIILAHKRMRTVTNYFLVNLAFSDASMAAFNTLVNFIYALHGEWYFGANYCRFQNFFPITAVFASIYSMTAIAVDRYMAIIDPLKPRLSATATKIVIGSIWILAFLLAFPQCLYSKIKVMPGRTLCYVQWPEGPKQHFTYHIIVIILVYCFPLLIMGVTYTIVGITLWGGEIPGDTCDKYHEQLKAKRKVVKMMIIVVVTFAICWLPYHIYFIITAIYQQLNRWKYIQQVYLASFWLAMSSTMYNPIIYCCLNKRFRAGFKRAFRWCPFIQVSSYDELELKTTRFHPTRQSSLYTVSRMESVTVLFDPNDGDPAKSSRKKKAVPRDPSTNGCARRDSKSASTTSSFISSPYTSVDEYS
Method: 8. Determination of the NK3-Receptor-Antagonistic Effectiveness of the Test Substances In Vivo (Reduction of Body Temperature in Gerbils with Senktide-Induced Hypothermia)
NK3 agonists reduce the body temperature of gerbils. The senktide-induced hypothermia can be antagonized by administering compounds with NK3-antagonistic properties. Measuring the level of hypothermia is indicative for the degree of activity of the test compounds. The own effect of the tested compound is assessed in the same experiment to exclude an additional hyperthermic effect.
Male gerbils with a body weight between 60 to 90 g are housed in groups under normal day-night rhythm and under constant environmental temperature (room temperature: 21±2° C.) with a constant relative humidity level (50±10%). Water and food are freely available. […] Antagonists: see example compounds in table X.
The animals are weighted and marked 60 minutes prior to the agonist administration. For oral (po) testings, the test compounds are administered at t=−60 minutes. For parenteral or subcutaneous (i por sc, resp.) administration, at t=−30 minutes. […] At t=15 minutes the temperature is measured orally, and registered with a 0.1° C. accuracy after a 10 second reading. This way, animals are measured every 60 sec.

[4] = biological target: T1, NK2-receptor; assay: Functional NK2-receptor antagonism in gall bladder preparations isolated from guinea pigs; conditions: neurokinin A-induced contraction
Method: 6. Determination of Functional NK2-Receptor Antagonism of Test Compounds in Tissue Isolated from Guinea Pigs.
The NK2 antagonistic action of test compounds was tested in gall bladder preparations isolated from guinea pigs. The preparations were kept in an oxygenated nutrient solution kept at 37° C. For measuring contraction of the gall bladder muscle, the preparations were fixed to a hook and connected to force displacement transducers. Contractions were recorded on a pen recorder.
Before (predrug) and after the administration of the test compound such contractions were measured and quantified in percent of the predrug contraction. 2-3 concentrations of the test compound were applied showing the inhibition of the receptor stimulation concentration dependently. […]

[5] = iv, read-out: ED50 iv after 1 min (cumulative), NK2 (bronchoconstriction)
[6] = iv, read-out: ED50 iv after 1 min (cumulative), NK2 (colonic motility)
[7] = iv, read-out: ED50 iv after 1 min (cumulative), NK2 (late hypotension)
[8] = t = 30 minutes after administration

Row | ED50 [1, 5] [µmol/kg] | ED50 [1, 6] [µmol/kg] | ED50 [1, 7] [µmol/kg] | pA2 data for NK1 [2] | ED50 iv after 1 min (cumulative), NK2 (bronchoconstriction) [1] [µmol/kg] | ED50 iv after 1 min (cumulative), NK2 (colonic motility) [1] [µmol/kg] | ED50 iv after 1 min (cumulative), NK2 (late hypotension) [1] [µmol/kg] | oral activity on the NK2, in words [1] | pA2, NK-2-receptor-antagonistic effectiveness on the guinea pig gall bladder in vitro [4] | SMILES | also measured
1 | – | – | – | 7.5 | – | – | – | – | – | CN(C)C(=O)C1(N2CCCCC2)CCN(CC[C@H](CN(C)C(=O)c2ccc(F)cc2F)c2ccc(Cl)c(Cl)c2)CC1 [compound 13] | –
2 | – | – | – | 7.3 | 0.26 | 0.245 | 0.247 | – | – | CN(C)C(=O)C1(N2CCCCC2)CCN(CC[C@H](CN(C)C(=O)c2ccc(F)c(F)c2)c2ccc(Cl)c(Cl)c2)CC1 [compound 14] | –
3 | – | – | – | – | 0.058 | 0.053 | 0.04 | active orally on the NK2 | 8.86 | CN(C)C(=O)C1(N2CCCCC2)CCN(CC[C@H](CN(C)C(=O)c2ccc(F)cc2)c2ccc(Cl)c(Cl)c2)CC1 [compound 4] | ED50 AUC1-180 min oral, NK2 (bronchoconstriction) [1]: <3.2 µmol/kg; ED50 AUC1-180 min oral, NK2 (colonic motility) [1]: <3.2 µmol/kg; ED50 AUC1-180 min oral, NK2 (late hypotension) [1]: 12 µmol/kg; Inhibition of temperature increase at a dose of 10 mg/kg after parenteral (ip) administration ([3]; t = 15 minutes after administration): 54%; Inhibition of temperature increase at a dose of 10 mg/kg after parenteral (ip) administration [3, 8]: 68%
4 | – | – | – | 7.2 | 0.075 | 0.066 | 0.1 | – | – | CN(C)C(=O)C1(N2CCCCC2)CCN(CC[C@H](CN(C)C(=O)c2cc(F)ccc2F)c2ccc(Cl)c(Cl)c2)CC1 [compound 15] | –

The remaining lines, values behind:

Row | SMILES | ED50 [1, 5] [µmol/kg] | ED50 [1, 6] [µmol/kg] | ED50 [1, 7] [µmol/kg] | pA2 data for NK1 [2] | ED50 iv after 1 min (cumulative), NK2 (bronchoconstriction) [1] [µmol/kg] | ED50 iv after 1 min (cumulative), NK2 (colonic motility) [1] [µmol/kg] | ED50 iv after 1 min (cumulative), NK2 (late hypotension) [1] [µmol/kg] | oral activity on the NK2, in words [1] | pA2, NK-2-receptor-antagonistic effectiveness on the guinea pig gall bladder in vitro [4] | also measured
5 | CN(C)C(=O)C1(N2CCCCC2)CCN(CCC(CN(C)C(=O)c2cccnc2)c2ccc(Cl)c(Cl)c2)CC1 (stereo not shown) [compound 19] | 0.093 | 0.028 | 0.209 | – | – | – | – | – | – | –
6 | CN(C)C(=O)C1(N2CCCCC2)CCN(CC[C@H](CN(C)C(=O)c2ccccc2)c2ccc(Cl)c(Cl)c2)CC1 [compound 1] | 0.033 | < 0.003 | 0.044 | – | – | – | – | active orally on the NK2 | – | ED50 ([1]; read-out: ED50 AUC1-180 min oral, NK2 (bronchoconstriction)): 0.457 µmol/kg; ED50 ([1]; read-out: ED50 AUC1-180 min oral, NK2 (colonic motility)): 1.08 µmol/kg; ED50 ([1]; read-out: ED50 AUC1-180 min oral, NK2 (late hypotension)): 2.24 µmol/kg; Kb ([2]; read-out: pA2 data for NK1 (converted)): 7.94 nM; Inhibition of temperature increase at t = 60 minutes after oral (po) administration ([3]; Dose: 10 mg/kg po): 37%; Inhibition of temperature increase at t = 60 minutes after oral (po) administration ([3]; Dose: 30 mg/kg po): 54%
7 | CN(C)C(=O)C1(N2CCCCC2)CCN(CC[C@H](CN(C)C(=O)C2CCCCC2)c2ccc(Cl)c(Cl)c2)CC1 [compound 3] | – | – | – | – | 0.221 | 0.07 | 0.397 | – | 8.96 | –
8 | CN(C)C(=O)C1(N2CCCCC2)CCN(CC[C@H](CN(C)C(=O)c2cc(C#N)c3ccccc3c2)c2ccc(Cl)c(Cl)c2)CC1 [compound 11] | – | – | – | 7.9 | 0.052 | 0.085 | 0.212 | active orally on the NK2 | 8.03 | ED50 AUC1-180 min oral, NK2 (bronchoconstriction) [1]: 2.213 µmol/kg; ED50 AUC1-180 min oral, NK2 (colonic motility) [1]: 11.228 µmol/kg; ED50 AUC1-180 min oral, NK2 (late hypotension) [1]: 2.509 µmol/kg
9 | CN(C)C(=O)C1(N2CCCCC2)CCN(CC[C@H](CN(C)C(=O)c2ccc(O)cc2)c2ccc(Cl)c(Cl)c2)CC1 [compound 6, 1′-{(3S)-3-(3,4-dichlorophenyl)-4-[(4-hydroxybenzoyl)-(methyl)amino]butyl}-N,N-dimethyl-1,4′-bipiperidine-4′-carboxamide] | 0.06 | 0.096 | 0.04 | – | – | – | – | – | – | Inhibition of temperature increase at a dose of 10 mg/kg after parenteral (ip) administration [3, 8]: 75%
10 | CN(C)C(=O)C1(N2CCCCC2)CCN(CCC(CN(C)C(=O)c2ccc(Cl)nc2)c2ccc(Cl)c(Cl)c2)CC1 (stereo not shown) [compound 18] | 0.18 | 0.068 | 0.181 | – | – | – | – | – | – | –

Source: patent US20070219214A1, “Dual NK2/NK3-antagonists, pharmaceutical compositions comprising them, and processes for their preparation” (Solvay pharmaceuticals GmbH, priority 2006, published 2007)
